Data taken from publication PMC10247784, “Physiological activation of human and mouse bitter taste receptors by bile acids” (Communications Biology, 2023).
“And” between values parts separate entries of the source, which are not always exact repeats. Identical values can stand only once.

Target: T1, human TAS2R1 (Homo sapiens, UniProt Q9NYW7)
T1 construct: expressed in transfected cells; host or cells: HEK293T-Gα16gust44
T1 sequence (Q9NYW7 1-299): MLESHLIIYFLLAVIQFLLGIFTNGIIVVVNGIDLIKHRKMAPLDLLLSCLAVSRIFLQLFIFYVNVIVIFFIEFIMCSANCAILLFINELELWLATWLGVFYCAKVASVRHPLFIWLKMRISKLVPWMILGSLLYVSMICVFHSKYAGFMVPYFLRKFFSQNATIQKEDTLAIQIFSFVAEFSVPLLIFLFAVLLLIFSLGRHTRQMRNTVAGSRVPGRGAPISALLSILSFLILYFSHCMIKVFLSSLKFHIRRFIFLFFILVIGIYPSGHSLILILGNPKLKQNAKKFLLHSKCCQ
Experiment: Calcium imaging assay (FLIPR), HEK293T-Gα16gust44 cells transfected with human TAS2R1
Format: cell-based
Summary of the method: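 Bile acids from DMSO stocks are applied to dye-loaded cells one day after transient receptor transfection, and calcium-dependent fluorescence is recorded. Maximum signal is standardized to basal and normalized to buffer-only wells, with empty-vector signal subtracted.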

Efficacy = maximal amplitude (ΔF/F) (TAS2R1, bile acids, mean): 0.1118
Efficacy (maximal amplitude ΔF/F), individual data points (TAS2R1, bile acids, single replicates, listed as CDCA): 0.09822 and 0.1595 and 0.07759
RLU (Time 0 s): 0 RLU
RLU (Time 2.015 s): 19.0362 RLU
RLU (Time 4.015 s): 1.217 RLU
RLU (Time 6.015 s): -17.015 RLU
RLU (Time 8.015 s): -2.669 RLU
RLU (Time 12.015 s): 20.3444 RLU
RLU (Time 14.015 s): 20.4897 RLU
RLU (Time 16.015 s): 20.4897 RLU
RLU (Time 18.015 s): 0.1896 RLU
RLU (Time 18.796 s): 35.4441 RLU
RLU (Time 20.796 s): 34.972 RLU
RLU (Time 22.796 s): 66.6032 RLU
RLU (Time 24.796 s): 169.759 RLU
RLU (Time 26.796 s): 276.637 RLU
RLU (Time 28.796 s): 430.728 RLU
RLU (Time 30.796 s): 521.85 RLU
RLU (Time 32.796 s): 667.246 RLU
RLU (Time 34.796 s): 744.49 RLU
RLU (Time 36.796 s): 777.672 RLU
RLU (Time 38.796 s): 835.786 RLU
RLU (Time 40.796 s): 853.586 RLU
RLU (Time 42.796 s): 876.11 RLU
RLU (Time 44.796 s): 905.241 RLU
RLU (Time 46.796 s): 902.191 RLU
RLU (Time 48.796 s): 919.121 RLU
RLU (Time 50.796 s): 927.172 RLU
RLU (Time 52.796 s): 893.665 RLU
RLU (Time 54.796 s): 936.083 RLU
RLU (Time 56.796 s): 944.124 RLU
RLU (Time 58.796 s): 915.714 RLU
RLU (Time 60.796 s): 876.524 RLU
RLU (Time 62.796 s): 877.876 RLU
RLU (Time 64.796 s): 906.896 RLU
RLU (Time 66.796 s): 861.974 RLU
RLU (Time 68.796 s): 872.092 RLU
RLU (Time 70.796 s): 871.317 RLU
RLU (Time 72.796 s): 854.469 RLU
RLU (Time 74.796 s): 844.188 RLU
RLU (Time 76.796 s): 841.862 RLU
RLU (Time 78.796 s): 815.084 RLU
RLU (Time 80.796 s): 833.544 RLU
RLU (Time 82.796 s): 792.555 RLU
RLU (Time 84.796 s): 783.457 RLU
RLU (Time 86.796 s): 757.585 RLU
RLU (Time 88.796 s): 790.002 RLU
RLU (Time 90.796 s): 748.006 RLU
RLU (Time 92.796 s): 752.186 RLU
RLU (Time 94.796 s): 735.827 RLU
RLU (Time 96.796 s): 731.254 RLU
RLU (Time 98.796 s): 711.692 RLU
RLU (Time 100.796 s): 698.367 RLU
RLU (Time 102.796 s): 713.847 RLU
RLU (Time 104.796 s): 673.465 RLU
RLU (Time 106.796 s): 693.426 RLU
RLU (Time 108.796 s): 681.535 RLU
RLU (Time 110.796 s): 647.896 RLU
RLU (Time 112.796 s): 643.349 RLU
RLU (Time 114.796 s): 607.76 RLU
RLU (Time 116.796 s): 609.573 RLU
RLU (Time 118.796 s): 614.947 RLU
RLU (Time 120.796 s): 582.22 RLU
RLU (Time 122.796 s): 589.185 RLU
RLU (Time 124.796 s): 584.345 RLU
RLU (Time 126.796 s): 601.503 RLU
RLU (Time 128.796 s): 551.854 RLU
RLU (Time 130.796 s): 581.558 RLU
RLU (Time 132.796 s): 570.089 RLU
RLU (Time 134.796 s): 541.966 RLU
RLU (Time 136.796 s): 537.391 RLU
RLU (Time 137.562 s): 528.381 RLU
RLU (Time 143.562 s): 528.401 RLU
RLU (Time 149.562 s): 492.752 RLU
RLU (Time 155.562 s): 464.959 RLU
RLU (Time 161.562 s): 428.355 RLU
RLU (Time 167.562 s): 423.067 RLU
RLU (Time 173.562 s): 376.724 RLU
RLU (Time 179.562 s): 392.276 RLU
RLU (Time 185.562 s): 341.893 RLU
RLU (Time 191.562 s): 346.95 RLU
RLU (Time 197.562 s): 320.481 RLU
RLU (Time 203.562 s): 327.574 RLU
RLU (Time 209.562 s): 318.301 RLU
RLU (Time 215.562 s): 277.825 RLU
RLU (Time 221.562 s): 283.821 RLU
RLU (Time 227.562 s): 172.224 RLU
RLU (Time 233.562 s): 155.786 RLU
RLU (Time 239.562 s): 141.722 RLU
RLU (Time 245.562 s): 124.55 RLU
RLU (Time 293.562 s): 126.733 RLU
RLU (Time 299.562 s): 134.725 RLU
RLU (calcium trace, sheet TAS2R1, Time 305.562 s): 138.341 RLU
RLU (calcium trace, sheet TAS2R1, Time 311.562 s): 138.414 RLU
RLU (calcium trace, sheet TAS2R1, Time 317.562 s): 144.044 RLU
RLU (calcium trace, sheet TAS2R1, Time 323.562 s): 138.244 RLU
RLU (calcium trace, sheet TAS2R1, Time 329.562 s): 121.3 RLU
RLU (calcium trace, sheet TAS2R1, Time 335.562 s): 104.786 RLU
RLU (calcium trace, sheet TAS2R1, Time 341.562 s): 124.793 RLU
RLU (calcium trace, sheet TAS2R1, Time 347.562 s): 124.739 RLU
RLU (calcium trace, sheet TAS2R1, Time 353.562 s): 136.304 RLU
RLU (calcium trace, sheet TAS2R1, Time 359.562 s): 146.172 RLU
Δ F/F (conc. 0,01 mM, TAS2R1): 0.1118
Δ F/F (conc. 0,00003 mM, TAS2R1): -0.002448
Δ F/F (conc. 0,0001 mM, TAS2R1): -0.01316
Δ F/F (conc. 0,0003 mM, TAS2R1): -0.003718
Δ F/F (conc. 0,001 mM, TAS2R1): 0.01001
Δ F/F (conc. 0,003 mM, TAS2R1): 0.03254
Activation threshold concentration TAS2R1 (lowest concentration with significantly increased fluorescence vs empty vector (p < 0.01)): 3 µM and 3.00 µM
Receptor response TAS2R1 (screening): activated
SMILES: C[C@H](CCC(=O)O)[C@H]1CC[C@H]2[C@@H]3[C@H](O)C[C@@H]4C[C@H](O)CC[C@]4(C)[C@H]3CC[C@]12C [Chenodeoxycholic Acid, chenodeoxycholic acid]
